The text below walks through data of PubChem BioAssay (NCI).

Holding throughout (test): NCI anticancer screen, dose series, 48 h
For test [1], the system named is ACHN renal.
The test system of test [2] is DU-145 prostate.
In test [3] the test system is HOP-92 NSCLC.
For test [4], the system named is KM12 colon.
Test [5] has as its system MALME-3M melanoma.
Test [6] has as its system NCI-H23 lung.
The test system of test [7] is OVCAR-4 ovarian.
Test [8] relates to OVCAR-5 ovarian.
The test system of test [9] is RPMI-8226 leukemia.
The subject of test [10] is SK-MEL-2 melanoma.

Several values for one entry are separate records, joined by “and”; a condition that tells them apart may be missing. Identical values can stand only once.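 Five concentrations, 48 hours, 96-well plates. GI50 marks 50% less growth. Definition used: TGI = concentration required for complete inhibition of growth.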

`CCOC(=O)CCC(NC(=O)c1ccc(Oc2nc3cc(N)cc(N)c3nc2-c2ccccc2)cc1)C(=O)OCC` (stereo not drawn): the GI50 was 28.5 µM in test [1]; 62.2 µM in test [2]; 30.1 µM in test [3]; 27.4 µM in test [4]; 18.5 µM in test [5]; 15.5 µM in test [6]. Besides, the GI50 in [7] is 35.6 µM; in test [8], 96.8 µM; in [9] it was above 100 µM; in [10], 40.7 µM. The TGI was above 100 µM in test [1]; above 100 µM in test [2]; above 100 µM in test [3]; above 100 µM in [4]; 35.2 µM in test [5]; 30.4 µM in test [6]. Besides, the TGI in test [7], in test [8], in [9] and in test [10] was above 100 µM throughout.
Turning to `O=C1OC(=O)c2c1cc1cc3c(cc1c2-c1ccc2c(c1)OCO2)OCO3`, the TGI in [1], in test [2], in test [3], in test [4], in test [5] and in [6] was above 100 µM throughout. Besides, the TGI in test [7], in test [8], in test [9] and in test [10] was above 100 µM throughout.
`COc1cc(/C=C/C(=O)c2cccc(-n3cc(-c4ccccc4)[nH]c3=O)c2)ccc1O`: the GI50 in test [1] is 3.46 µM; in test [2], 2.32 µM; in test [3], 1.99 µM; in test [4] it was 2.02 µM; in [5] it was 5.25 µM; in test [6], 3.16 µM. The GI50 was 3.3 µM in test [7], 6.25 µM in test [8], 1.66 µM in test [9] and 3.81 µM in [10]. In addition, the TGI in [1] worked out at 16.3 µM; in [2], 5.37 µM; in test [3], 6.68 µM; in [4], 4.68 µM; in [5] it was 17.1 µM; in test [6], 11.6 µM. Further, the TGI is above 23 µM in [7], 14.1 µM in test [8], 4.21 µM in test [9] and 15.1 µM in test [10].
`O=C1c2c[n+](Cc3ccccc3)ccc2-c2nc3ccccc3c3ccnc1c23`: the GI50 was 0.196 µM in [1]; 0.417 µM in [2]; 0.548 µM in [3]; 1.06 µM in [4]; 0.499 µM in test [5]; 0.158 µM in [6]. Further, the GI50 was 0.468 µM in test [7], 1.63 µM in [8], 1.06 µM in [9] and 0.646 µM in test [10]. For the same compound, the TGI amounted to 33.3 µM in [1]; 0.891 µM in [2]; 1.9 µM in test [3]; 4.28 µM in test [4]; 1.02 µM in test [5]; 1.26 µM in test [6]. Further, the TGI in test [7] was determined as 0.92 µM; in test [8] it was 10.5 µM; in [9], 6.76 µM; in test [10], 1.77 µM.
With `CCN(CC)CCNc1ccc2nc(C)n3c4ccc(OC)cc4c(=O)c1c23`, the TGI in test [1] worked out at 13.3 µM; in [2] it was 13.3 µM; in test [3] it was 20.7 µM; in test [4], 14.6 µM; in [5] it was 21.7 µM; in test [6], 18.3 µM. Besides, the TGI in [7] is 8.25 µM; in test [8] it was 20.3 µM; in test [9] it was 5.34 µM; in test [10], 28 µM.
Turning to `COc1cccc2c1C(=O)c1c(O)c3c(c(O)c1C2=O)C[C@@](O)(C(=O)CO)C[C@@H]3OC1CC2C(OCN2CN2COC3C(C)OC(O[C@H]4C[C@](O)(C(=O)CO)Cc5c(O)c6c(c(O)c54)C(=O)c4c(OC)cccc4C6=O)CC32)C(C)O1` (stereo partly drawn), the GI50 in [1] is 0.00194 µM; in test [2] it was 0.00312 µM; in test [3] it was 0.00606 µM; in [4] it was 0.0139 µM; in test [5] it was 0.0149 µM; in test [6], 0.00477 µM. The GI50 in test [7] was 0.0222 µM; in [8] it was 0.0304 µM; in test [9] it was 0.0017 µM; in test [10] it was 0.0179 µM. The TGI in test [1] is 0.0345 µM; in test [2] it was above 1 µM; in test [3], above 0.293 µM; in test [4], 0.0609 µM; in test [5], 0.0399 µM; in test [6], 0.0316 µM. For the same compound, the TGI in test [7] is 0.0593 µM; in test [8] it was above 0.264 µM; in [9], 0.0108 µM; in test [10] it was 0.0591 µM.
Regarding `CN(C)Cc1c[nH]c2nc[nH]c(=O)c12`, the TGI is above 100 µM in [1]; 64.8 µM in [2]; 85.8 µM in test [3]; above 100 µM in test [4]; above 100 µM in test [5]; above 100 µM in test [6]. Further, the TGI was above 100 µM in test [7], above 100 µM in test [8], 59.4 µM in [9] and above 100 µM in test [10].
For the compound `O=C(NCCc1nccs1)c1cnc2c(S)cccc2c1`, the GI50 was 3.36 µM in test [1]; 3.27 µM in test [2]; 19.8 µM in test [3]; 2.88 µM in test [4]; 4.03 µM in test [5]; 3.91 µM in test [6]. Besides, the GI50 in test [7] is 2.72 µM; in test [8], 10 µM; in test [9], 4.15 µM; in [10], 3.57 µM. The TGI in [1] was 14.1 µM; in test [2] it was 13.7 µM; in test [3] it was 40.8 µM; in test [4], 17.8 µM; in [5], 52.4 µM; in test [6], above 100 µM. For the same compound, the TGI was 34 µM in test [7], 41.6 µM in [8], above 100 µM in test [9] and 26.5 µM in test [10].
In the case of `CC1=C(C(=O)Nc2cc(F)c(F)cc2F)C(c2ccc(N(C)C)cc2)C(C(=O)Nc2cc(F)c(F)cc2F)=C(C)N1`, the TGI in [1] is above 87.9 µM; in test [2] it was above 100 µM; in [3], 15.2 µM; in test [4] it was above 75.5 µM; in test [5] it was above 100 µM; in test [6], above 85.1 µM. Moreover, the TGI in [7] was above 79.1 µM; in test [8], above 100 µM; in test [9] it was above 68.6 µM; in test [10], above 100 µM. Moreover, in test [2], the GI50 was 49.4 µM.
`Cc1ccc(S(=O)(=O)NC(=O)Nc2ncn[nH]2)cc1`: the TGI in [1], in test [2], in test [3], in test [4], in [5] and in [6] was above 100 µM throughout. Moreover, the TGI in test [7], in test [8], in [9] and in [10] was above 100 µM each time.
Take `O=C1/C(=C/c2ccc([N+](=O)[O-])s2)Oc2ccc(Br)cc21`: the GI50 is 0.199 µM in test [1]; 1.43 µM in [2]; 0.21 µM in test [3]; 0.247 µM in test [4]; 0.347 µM in test [5]; 0.549 µM in [6]. For the same compound, the GI50 is 0.352 µM in [7], 1.07 µM in test [8], 0.278 µM in test [9] and 0.231 µM in [10]. Further, the TGI in test [1] was determined as 0.414 µM; in test [2], 2.9 µM; in test [3], 0.606 µM; in test [4], 0.623 µM; in test [5], 1.6 µM; in [6] it was 2.22 µM. For the same compound, the TGI was found to be 1.43 µM in [7], 2.47 µM in test [8], 1.14 µM in test [9] and 0.509 µM in [10].
Take `COC(=O)c1cc2c3cc(Cl)ccc3[nH]c2c2ncccc12`: the GI50 in [1], in test [2], in test [3], in [4], in [5] and in [6] was above 100 µM in each case. Also, the GI50 in [7], in test [8], in [9] and in test [10] was above 100 µM throughout. For the same compound, the TGI in [1], in test [2], in [3], in test [4], in test [5] and in [6] was above 100 µM each time. Besides, the TGI in test [7], in test [8], in test [9] and in [10] was above 100 µM in each case.
Turning to `C=CC(=O)N1CCN(c2nc(OC[C@@H]3CCCN3C)nc3c(F)c(-c4nc(N)cc(C)c4C(F)(F)F)c(Cl)cc23)[C@@H](C)C1`, the GI50 in test [1] was 3.41 µM; in test [2] it was 2.65 µM; in test [3] it was 1.75 µM; in [4], 2.11 µM; in test [5], 1.86 µM; in test [7], 1.59 µM. The GI50 was 9.68 µM in [8], 2.49 µM in [9] and 2.05 µM in [10]. For the same compound, the TGI in test [1] came to 12.6 µM; in test [2], 7.2 µM; in test [3], 3.71 µM; in test [4], 4.56 µM; in test [5] it was 3.37 µM; in test [6], 1.34 µM. Besides, the TGI in test [7] stood at 3 µM; in test [8], 21.7 µM; in [9], 7.06 µM; in test [10], 4.34 µM.
Regarding `CCOC(=O)c1ccc(N[C@@H]2c3cc4c(cc3C(c3cc(OC)c(O)c(OC)c3)[C@H]3C(=O)OCC32)OCO4)cc1` (stereo partly drawn), the GI50 in test [1] was 0.161 µM; in test [3], 0.35 µM; in test [4] it was 0.875 µM; in test [5], 0.343 µM; in test [6], 0.191 µM; in test [8] it was 0.646 µM. Moreover, the TGI in test [1] was 0.75 µM and 1.44 µM; in test [2], above 100 µM; in [4] it was 5.29 µM; in test [5], 2.95 µM; in [6], 0.768 µM and 2.24 µM; in [7] it was 12.6 µM. In addition, the TGI in test [8] was 6.16 µM; in test [9], 7.08 µM; in test [10], 6.27 µM.
With `CC(C)C[C@H](NC(=O)[C@@H](N)Cc1cccc2ccccc12)B(O)O`, the GI50 is below 0.01 µM in [1]; 0.0736 µM in [2]; 0.0288 µM in test [3]; 0.546 µM in [4]; 0.156 µM in test [5]; 0.245 µM in [6]. The values for the GI50 in test [7], in [8] and in [10] were 0.0384 µM, 0.174 µM and 0.598 µM, respectively. In addition, the TGI is 50 µM and > 100 µM in test [1]; 6.14 µM and 1.15 µM in [2]; 0.426 µM and 0.0707 µM in [5]; below 0.0272 µM in test [9].
`CCOC(=O)c1c(C)n(Cc2ccc(Cl)cc2Cl)c2c1cc(O)c1[nH]c(Cc3ccccc3)nc12`: the GI50 was 3.49 µM in test [1]; 3.07 µM in test [2]; 1.77 µM in [3]; 2.05 µM in test [4]; 7.26 µM in test [5]; 3.6 µM in [6]. Also, the GI50 in test [7] was 4.15 µM; in [8], 3.65 µM; in test [9] it was 1.92 µM; in [10] it was 9.39 µM. The TGI in test [1] came to 13.4 µM; in [2], 8.66 µM; in test [3] it was 4.16 µM; in [4] it was 4.62 µM; in test [5], 28.8 µM; in test [6], 10.6 µM. The TGI was 16.7 µM in [7], 9.36 µM in [8], 3.9 µM in test [9] and 37.2 µM in [10].
As for `CC(=O)OC1C(C)OC(Oc2c(-c3ccc(O)cc3)oc3cc(O)cc(O)c3c2=O)C(O)C1OC(C)=O` (stereo not drawn), the GI50 was 52.3 µM in [1]; 31.7 µM in test [2]; 13.2 µM in test [3]; 29.4 µM in test [4]; 21.3 µM in [5]; 26.4 µM in test [6]. Further, the GI50 is 35.9 µM in test [7], above 100 µM in test [8], 23.4 µM in [9] and 21.1 µM in test [10]. Moreover, the TGI in [1] was above 100 µM; in test [2], above 94.1 µM; in test [3], 54.3 µM; in test [4], above 83.8 µM; in test [5], above 75.2 µM; in test [6] it was above 80.7 µM. The TGI was above 100 µM in test [7], above 100 µM in [8], 70.4 µM in test [9] and 49.3 µM in test [10].
